Two molecules from patent EP1806135A2, “The use of a protein tyrosine inhibitor such as genistein in the treatment of diabetic retinopathy or ocular inflammation” (THE JOHNS HOPKINS UNIVERSITY SCHOOL OF MEDICINE, priority 1998, dated 1999) can be followed below.

The subject of one data set is pigmented rabbits. Put plainly: Ocular inflammation (vitreous cavity haze) after intravitreal injection of homologous dermal fibroblasts. It counts as in vivo, rabbit. As to conditions: graded 3 days after fibroblast injection. The method, then: The principles of laboratory animal care (NIH publication No. 86-23, revised 1985) were followed. For all studies, pigmented rabbits, weighing 2.5-3 kg were used. The animals were anesthetized with a cocktail of ketamine (25 mg/kg) and xylazine (5 mg/kg), and the pupils were dilated with topical 1 % tropicamide and 0.5% phenylephrine.
Vitreous liquefaction was caused by injection of SF6 gas. After an anterior chamber paracentesis (0.1 ml), pure SF6 gas (0.3 ml) was injected. The 30-gauge needle was inserted inferiorly in order to maximize the vitreous liquefaction.
Rabbit dermal fibroblasts were obtained from rabbit rump biopsy material prepared under sterile conditions: Primary cultures were incubated in Dulbecco's modified Eagle's medium (DMEM) with 30% calf serum, antibiotics (penicillin G sodium, streptomycin sulfate) and antimycotics (amphotericin B) under a humid atmosphere of 5% carbon dioxide in air for 72 hours. The medium was then changed to DMEM with 10% calf serum, antibiotics and antimycotics as above. The cultures were passaged weekly. Cells were harvested by incubating them with 3.5 ml of 0.04% trypsin for 4 minutes and collecting the cells in stop media. The dispersed cells were centrifuged at 1,000 rpm for 5 minutes and resuspended in 1 ml of phosphate-buffered saline. After cell counts of a 0.05 ml aliquot, the suspension was diluted to achieve a final concentration of 2.5x10^4 cells in a 0.1 ml of phosphate-buffered saline.
Fourteen days after the injection of SF6 gas, a 30-gauge needle was inserted 3 mm posterior to the corneoscleral limbus in the superonasal quadrant under microscopic control. With the bevel of the needle directed upward, 2.5x10^4 homologous rabbit dermal fibroblasts suspended in 0.1 ml sterile phosphate-buffered saline were injected just in front of the optic nerve head. This was performed in both eyes of all rabbits. The rabbits were immediately placed on their backs for 1 hour to allow the cells to settle over the vitreous surface. […]

The next data set has as its system retina. Put plainly: Retinal toxicity by electroretinography after oral administration. It counts as in vivo. As to conditions: orally administered, 75 mg/kg/day to 300 mg/kg/day over a period of six months, Zucker diabetic fatty rats. The text has this: (§1) An advantage of genistein is that it is very safe and efficacious. […] Also, no effect of orally administered genistein was found with respect to the weight of the ovaries and the uterus in female rats.

For data set [1], the system named is PCNA. Put plainly: Western immunoblot analysis of PCNA in the retina. It counts as in vivo. As to conditions: 50 mg/kg intraperitoneally, repeated after two hours; Zucker diabetic fatty rat retina; not down to the lean control level. The text has this:
(§2) Six pair of litter mates of Zucker rats, i.e., six male retired breeder Zucker diabetic fatty (ZDF, fa/fa) rats and six male retired breeder lean Zucker (fa/+) rats, were obtained (Genetic Models, Inc., Indianapolis, IN). The Zucker diabetic fatty rat develops a microvascular retinopathy involving basement membrane thickening of retinal capillaries, pericyte loss, capillary hypercellularity, and increased endothelial intercellular junctions (Danis et al., Invest. Ophthalmol. Vis. Sci. 34:2367-2371 (1993); and Dosso et al., Diabetologia 33:137-144 (1990)). The microvascular changes known to occur in the Zucker diabetic fatty rats are associated with the elevated levels of VEGF and platelet-derived growth factor (PDGF) and with activation of PTK pathways, especially pathways that include phosphatidylinositol-3 kinase (PI3-K) and mitogen-activated protein kinase (MAPK). Each pair of litter mates was between six and seven months of age. Rats were fed with a diet of Purina 5008 rat chow. The animals were treated in accordance with The Association for Research in Vision and Ophthalmology (ARVO) Statement for the Use of Animals in Ophthalmic and Vision Research. The average blood glucose value was more than 500 mg/dl for the Zucker diabetic fatty rats and 120 mg/dl for the control lean rats as measured by glucose oxidase assay at the time of death (Danis et al. (1993), supra). […]

Data set [2] has as its system PCNA. Description: Immunohistochemical analysis of PCNA in the retina. It counts as in vivo. The settings on record: genistein treated diabetic rats compared with untreated Zucker diabetic fatty rats. The method, then: Two pairs of rats were used for immunohistochemical analysis of PCNA in the retina. Under deep anesthesia with ketamine and xylazine, the four rats were perfused transcardially with 0.1 M phosphate-buffered saline (PBS; pH 7.4) containing 1 mM orthovanadate, followed by perfusion of 2 % paraformaldehyde in 0.1 M PBS for fixation. The eyes were then removed and immersed in the same fixative for 30 min. The anterior segments were removed and the posterior segments were transferred into a graded sucrose solution from 5 % to 15 % for 2 hrs and incubated in 20 % sucrose solution overnight at 4°C. After cryoprotection, the eyes were molded in O.C.T. compound (Miles, Inc., Elkhart, IN) and frozen in isopentane with dry ice. The posterior segments were cut into 8 µm sections.
The sections were treated with 3 % peroxide to block intrinsic peroxidase, and incubated with 2 % normal horse serum for 20 min. After rinsing in 0.1 M PBS three times, the sections were incubated overnight at 4°C with anti-PCNA antibody (1:1,000 dilution). After the incubation, the sections were rinsed in 0.1 M PBS, and incubated with biotinylated anti-mouse IgG antibody (Vector Laboratories, Inc., Burlingame, CA; 1:500 dilution) for 30 min at room temperature, and then incubated with […] streptavidin (Kirkegaad & Perry Laboratories, Inc., Gaithersburg, MD; 1:500 dilution). […]

For the next data set, the system named is 67 kDa band. Description: Total protein profile of retinal homogenate (gel electrophoresis, Coomassie brilliant blue staining). The settings on record: 50 mg/kg intraperitoneally, repeated after two hours; retina taken 24 hours later; Zucker diabetic fatty rat. It counts as in vivo.
Excerpt: as §2, with “The animals were treated in accordance with The Association for Research in Vision and Ophthalmology (ARVO) Statement for the Use of Animals in Ophthalmic and Vision Research.” left out
Protein concentrations were measured by the Pierce BCA method. […]

A further data set deals with MAPK. Put plainly: Western immunoblot analysis of immunoprecipitated tyrosine phosphorylated proteins in the retina: MAPK. The data set is classed as in vivo, Zucker diabetic fatty rat. The settings on record: 50 mg/kg intraperitoneally, repeated after two hours; treated group compared with the non-treated animals group.
Excerpt: as §2, with “Each pair of litter mates was between six and seven months of age. Rats were fed with a diet of Purina 5008 rat chow. The animals were treated in accordance with The Association for Research in Vision and Ophthalmology (ARVO) Statement for the Use of Animals in Ophthalmic and Vision Research.” left out
(§3) The retinal tissue samples were added to immunoprecipitation buffer (1 % Triton X-100, 150 mM NaCl, 10 mM Tris, pH 7.4, 1 mM EGTA, 0.2 mM sodium vanadate, 0.2 mM PMSF, 0.5 % NP-40) and homogenized. […] Protein concentrations were measured by the Pierce BCA method. […]

Data set [3] is described as follows: Food intake, body weight and organ weights after oral administration. It counts as in vivo, rats.
Excerpt: as §1

The subject of a further data set is PI3-K. Put plainly: Western immunoblot analysis of immunoprecipitated tyrosine phosphorylated proteins in the retina: PI3-K. It counts as in vivo, Zucker diabetic fatty rat. The settings on record: 50 mg/kg intraperitoneally, repeated after two hours; especially in the diabetic rat.
Excerpt: as §2, with “Each pair of litter mates was between six and seven months of age. Rats were fed with a diet of Purina 5008 rat chow. The animals were treated in accordance with The Association for Research in Vision and Ophthalmology (ARVO) Statement for the Use of Animals in Ophthalmic and Vision Research.” left out
as §3

Data set [4] has as its system tyrosine phosphorylated proteins. Put plainly: Western immunoblot analysis of tyrosine phosphorylated proteins in the retina. The settings on record: 50 mg/kg intraperitoneally, repeated after two hours; diabetic rats compared with the non-treated group. The data set is classed as in vivo, Zucker diabetic fatty rat.
Excerpt: as §2

[5] abbreviates: oral administration, male and female rats.
Setting [6] is: orally administered, female rats.

SMILES strings stand for the structures.

Turning to `COC1C=CC=C(C)C(=O)NC2=CC(=O)C=C(C2=O)C(OC)C(C)CC(OC)C(OC)C(C)C=C(C)C1OC(N)=O` (centres unmarked) [HA, Herbimycin A], the “eyes with severe inflammation (vitreous haze)” value with pigmented rabbits (group 1: 23 µg intravitreally 1 hour (prophylactic) after fibroblast injection, control eyes 47.1%, p<0.01) came out at 0%; in the data set on pigmented rabbits (group 2: 23 µg intravitreally 2 days (therapeutic) after fibroblast injection, control eyes 50%, p>0.05), 10%; with pigmented rabbits (group 3: 11.5 µg intravitreally at 1 hour and again 2 days after fibroblast injection, control eyes 77.8%, p<0.05), 22.2%.
Regarding `O=c1c(-c2ccc(O)cc2)coc2cc(O)cc(O)c12` [genistein, 5,7-dihydroxy-3-(4-hydroxyphenyl)-4H-1-benzopyran-4-one], the “toxicity to the retina as measured by electroretinography” value in the data set with retina is “nontoxic to the retina”. Further, the “level of PCNA at 36 kDa” value in the data set with PCNA [1] was “reduced this increase”. The “PCNA immunopositive cells in the retina” value with PCNA [2] is reported as “fewer immunopositive cells were detected”. In addition, the “amount of staining of the 67 kDa band in total protein profiles” value in the data set on 67 kDa band was “reduced”. In addition, the “level of tyrosine phosphorylated MAPK at 44 kDa” value in the data set with MAPK is listed as “decreased”. For the same molecule, in data set [3] (setting [5]), the body weight result is on record as “no effect” and the food intake result is “no effect”. In [3] (setting [6]), the “weight of the ovaries” value is reported as “no effect” and the “weight of the uterus” value is on record as “no effect”. Moreover, in the data set on PI3-K, the “tyrosine phosphorylated PI3-K stained band at 85 kDa” value is “reduced”. For the same molecule, in data set [4], the “staining of tyrosine phosphorylated proteins at 50, 66, 97 and 116 kDa” value is on record as “decreased staining at each molecular weight”.
